Broadly, the EC50 is the concentration at which the effect is half-maximal. Low readings indicate a more potent agent, high ones a less potent agent. Usually melting point stands for the temperature of the solid-liquid transition.

13 molecules from patent US20100041892A1, “Therapeutic agent for diabetes” (priority 2005, published 2010) can be followed below.

SMILES strings stand for the structures. Like-named read-outs stand apart in the source and are kept apart here.

One data set has as its target T1, PPARγ-RXRα heterodimer (Homo sapiens, UniProt P37231).
T1 construct: expressed in transfected cells; host or cells: CHO-K1 (PPARγ:RXRα:4ERPP/CHO-K1)
T1 sequence (P37231 1-477 isoform P37231-2): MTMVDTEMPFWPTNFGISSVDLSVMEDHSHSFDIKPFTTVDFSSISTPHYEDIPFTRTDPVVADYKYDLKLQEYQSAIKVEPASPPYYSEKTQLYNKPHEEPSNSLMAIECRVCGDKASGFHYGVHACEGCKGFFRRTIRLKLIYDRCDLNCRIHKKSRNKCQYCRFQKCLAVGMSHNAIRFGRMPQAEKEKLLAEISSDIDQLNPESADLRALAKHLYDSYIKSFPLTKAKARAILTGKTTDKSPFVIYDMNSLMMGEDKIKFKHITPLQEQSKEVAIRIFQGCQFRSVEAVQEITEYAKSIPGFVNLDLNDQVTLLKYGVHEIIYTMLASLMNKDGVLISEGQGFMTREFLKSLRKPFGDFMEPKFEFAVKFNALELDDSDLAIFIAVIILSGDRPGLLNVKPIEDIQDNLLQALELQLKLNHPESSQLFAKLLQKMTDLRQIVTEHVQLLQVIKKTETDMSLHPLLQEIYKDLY
T1 sequence (P19793 1-462 partner): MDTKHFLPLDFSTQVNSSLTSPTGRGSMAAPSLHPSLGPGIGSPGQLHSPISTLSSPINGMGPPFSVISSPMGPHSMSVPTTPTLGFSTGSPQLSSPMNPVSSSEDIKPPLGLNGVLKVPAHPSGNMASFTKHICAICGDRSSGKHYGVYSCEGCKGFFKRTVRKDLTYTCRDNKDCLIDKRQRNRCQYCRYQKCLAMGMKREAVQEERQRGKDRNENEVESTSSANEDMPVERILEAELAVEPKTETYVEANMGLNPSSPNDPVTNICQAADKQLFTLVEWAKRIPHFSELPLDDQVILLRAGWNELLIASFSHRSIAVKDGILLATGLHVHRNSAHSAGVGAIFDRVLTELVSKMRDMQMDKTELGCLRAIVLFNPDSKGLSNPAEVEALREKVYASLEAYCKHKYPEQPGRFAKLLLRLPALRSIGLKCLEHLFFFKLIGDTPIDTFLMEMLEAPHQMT
In words: PPARγ-RXRα heterodimer ligand activity (luciferase reporter, PPARγ:RXRα:4ERPP/CHO-K1 cells). It is filed as cell-based. The settings on record: concentration showing 50% of the maximum luciferase induction rate; CHO-K1 reporter cells, one day incubation. The procedure, abridged: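 CHO-K1 cells expressing PPARγ:RXRα with a 4ERPP reporter were exposed to compound for one day at 37° C in Ham F12 containing 0.1% fatty acid-free BSA, then read for luciferase. Induction rate was taken relative to untreated cells as 1, and EC50 is the concentration giving 50% of maximal induction.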

The test system of a further data set is KKAy mice. Kind of data set: Blood glucose and blood lipid (triglyceride) lowering action in mice. The settings on record: Mus musculus, 4TO7, po, 4 to 7 days; for response vs control in vivo at 0.01 %: 0.01% in powder diet; for response vs control in vivo at 0.03 %: 0.03% in powder diet. Format: in vivo. The procedure, abridged: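 KKAy mice (9 to 14-week-old, 5 per group) fed compound in powder diet at 0.01% (some at 0.03% or 0.005%) ad libitum for 4 to 7 days. Orbital plexus blood drawn; plasma glucose and triglyceride quantitated by enzyme method.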

Where [1] appears, read: plasma glucose relative to non-administration group = 100%, read-out: hypoglycemic action (%).
[2] abbreviates: plasma triglyceride relative to non-administration group = 100%, read-out: hypolipidemic action (%).

`CC(C)CCS(=O)(=O)NC(=O)/C=C/c1cc(OCC2CC2)nn1Cc1ccc(C(F)(F)F)cc1Cl` [Example 26, (2E)-3-[1-[2-chloro-4-(trifluoromethyl)benzyl]-3-(cyclopropylmethoxy)-1H-pyrazol-5-yl]-N-[(3-methylbutyl)sulfonyl]acrylamide]: the melting point lay within 155.5 to 157.5 °C. In addition, the response at PPARγ-RXRα heterodimer was half-maximal at 4.6 nM (EC50). Further, in the data set on KKAy mice (setting [1]), the response vs control in vivo at 0.01 % was found to be 50%. In the data set with KKAy mice (setting [2]), the response vs control in vivo at 0.01 % was found to be 62%.

In the case of `CCCCOC(=O)NS(=O)(=O)CCc1cc(OCCCC)nn1Cc1ccc(Cl)cc1Cl` [Example 129, butyl ({2-[3-butoxy-1-(2,4-dichlorobenzyl)-1H-pyrazol-5-yl]ethyl}sulfonyl)carbamate], the melting point was in the range of 108 to 111 °C. Also, a half-maximal response at PPARγ-RXRα heterodimer (EC50) required 10 nM. Also, the response vs control in vivo at 0.03 % in the data set with KKAy mice (setting [1]) is 45%. The response vs control in vivo at 0.03 % in the data set with KKAy mice (setting [2]) was determined as 76%.

Turning to `CCCCCS(=O)(=O)NC(=O)/C=C/c1cc(OCC2CC2)nn1Cc1ccc(C(F)(F)F)cc1Cl` [Example 151, (2E)-3-[1-[2-chloro-4-(trifluoromethyl)benzyl]-3-(cyclopropylmethoxy)-1H-pyrazol-5-yl]-N-(pentylsulfonyl)acrylamide], the melting point was in the range of 148 to 151 °C. Moreover, the EC50 at PPARγ-RXRα heterodimer came to 7.2 nM. In addition, the response vs control in vivo at 0.01 % in the data set on KKAy mice (setting [1]) is 59%. The response vs control in vivo at 0.01 % in the data set on KKAy mice (setting [2]) was 73%.

On to `CCCCCS(=O)(=O)NC(=O)/C=C/c1ccc(OC(COCC)COCC)cc1Oc1ncc(C(F)(F)F)cc1Cl` [Example 198, (2E)-3-{2-{[3-chloro-5-(trifluoromethyl)pyridin-2-yl]oxy}-4-[2-ethoxy-1-(ethoxymethyl)ethoxy]phenyl}-N-(pentylsulfonyl)acrylamide], for which the melting point is 83 to 85.5 °C. Besides, at PPARγ-RXRα heterodimer, the half-maximal effective concentration (EC50) was found to be 7.8 nM. The response vs control in vivo at 0.01 % in the data set on KKAy mice (setting [1]) stood at 62%. Further, the response vs control in vivo at 0.01 % in the data set on KKAy mice (setting [2]) was found to be 84%.

`CCCCCS(=O)(=O)NC(=O)CCc1cc(OCCCC)nn1Cc1ccc(Cl)cc1Cl` [Example 97, 3-[3-butoxy-1-(2,4-dichlorobenzyl)-1H-pyrazol-5-yl]-N-(pentylsulfonyl)propanamide] yielded a melting point of 104 to 105 °C. A half-maximal effect on PPARγ-RXRα heterodimer (EC50) was put at 7.5 nM. Moreover, in the data set with KKAy mice (setting [1]), the response vs control in vivo at 0.01 % came to 58%. Moreover, the response vs control in vivo at 0.01 % in the data set with KKAy mice (setting [2]) worked out at 64%.

In the case of `CCOCC(COCC)Oc1ccc(CCCOC(=O)NS(=O)(=O)NCCOC(C)C)c(Oc2ncc(C(F)(F)F)cc2Cl)c1` [Example 430, 3-{2-{[3-chloro-5-(trifluoromethyl)pyridin-2-yl]oxy}-4-[2-ethoxy-1-(ethoxymethyl)ethoxy]phenyl}propyl {[(2-isopropoxyethyl)amino]sulfonyl}carbamate], the melting point was 68 to 69.2 °C. A half-maximal response at PPARγ-RXRα heterodimer (EC50) required 0.95 nM. Besides, in the data set on KKAy mice (setting [1]), the response vs control in vivo at 0.01 % worked out at 45%. For the same molecule, the response vs control in vivo at 0.01 % in the data set on KKAy mice (setting [2]) was found to be 34%.

In turn, `COCCOc1ccc(CCCOC(=O)NS(=O)(=O)NCCOC(C)C)c(Oc2ncc(Cl)cc2Cl)c1` [Example 429, 3-[2-[(3,5-dichloropyridin-2-yl)oxy]-4-(2-methoxyethoxy)phenyl]propyl {[(2-isopropoxyethyl)amino]sulfonyl}carbamate] showed a melting point of 87.5 to 88.4 °C. In addition, the EC50 on PPARγ-RXRα heterodimer came to 3.8 nM. For the same molecule, in the data set on KKAy mice (setting [1]), the response vs control in vivo at 0.01 % is 51%. In addition, the response vs control in vivo at 0.01 % with KKAy mice (setting [2]) amounted to 60%.

For the molecule `COCCOc1ccc(CCCOC(=O)NS(=O)(=O)NCCc2cccs2)c(Oc2ncc(C(F)(F)F)cc2Cl)c1` [Example 207, 3-[2-{[3-chloro-5-(trifluoromethyl)pyridin-2-yl]oxy}-4-(2-methoxyethoxy)phenyl]propyl ({[2-(2-thienyl)ethyl]amino}sulfonyl)carbamate], the melting point lay within 117.5 to 118 °C. At PPARγ-RXRα heterodimer, this molecule displayed an EC50 of 0.99 nM. The response vs control in vivo at 0.01 % in the data set on KKAy mice (setting [1]) is 54%. In addition, the response vs control in vivo at 0.01 % in the data set with KKAy mice (setting [2]) came to 43%.

On to `COCCOc1ccc(/C=C/COC(=O)NS(=O)(=O)N2CCCC2)c(Oc2ncc(C(F)(F)F)cc2Cl)c1` [Example 437, (2E)-3-[2-{[3-chloro-5-(trifluoromethyl)pyridin-2-yl]oxy}-4-(2-methoxyethoxy)phenyl]prop-2-en-1-yl (pyrrolidin-1-ylsulfonyl)carbamate], for which the melting point lay in the range of 123 to 124 °C. Further, the EC50 on PPARγ-RXRα heterodimer was determined as 54 nM. The response vs control in vivo at 0.01 % with KKAy mice (setting [1]) is 45%. Besides, the response vs control in vivo at 0.01 % in the data set on KKAy mice (setting [2]) was determined as 58%.

`CCCCCS(=O)(=O)NC(=O)/C=C/c1ccc(Oc2ncccn2)cc1Oc1ncc(C(F)(F)F)cc1Cl` [Example 197, (2E)-3-[2-{[3-chloro-5-(trifluoromethyl)pyridin-2-yl]oxy}-4-(pyrimidin-2-yloxy)phenyl]-N-(pentylsulfonyl)acrylamide] came in with a melting point of 80.5 to 82.5 °C. Further, a half-maximal response on PPARγ-RXRα heterodimer (EC50) required 28 nM. Besides, the response vs control in vivo at 0.01 % in the data set on KKAy mice (setting [1]) was 58%. Moreover, the response vs control in vivo at 0.01 % in the data set with KKAy mice (setting [2]) was found to be 87%.

`CCCCCS(=O)(=O)NC(=O)/C(=C/c1ccc(OCCOC)cc1Oc1ncc(C(F)(F)F)cc1Cl)CC` [Example 183, (2E)-2-[2-{[3-chloro-5-(trifluoromethyl)pyridin-2-yl]oxy}-4-(2-methoxyethoxy)benzylidene]-N-(pentylsulfonyl)butanamide] yielded a melting point of 104.5 to 105.6 °C. In addition, the EC50 on PPARγ-RXRα heterodimer is 3.8 nM. In addition, in the data set on KKAy mice (setting [1]), the response vs control in vivo at 0.01 % was determined as 48%. Also, the response vs control in vivo at 0.01 % in the data set on KKAy mice (setting [2]) is 44%.

In turn, `CCCCCS(=O)(=O)NC(=O)/C=C/c1ccc(OCCC2OCCO2)cc1Oc1ncc(C(F)(F)F)cc1Cl` [Example 196, (2E)-3-[2-{[3-chloro-5-(trifluoromethyl)pyridin-2-yl]oxy}-4-[2-(1,3-dioxolan-2-yl)ethoxy]phenyl)-N-(pentylsulfonyl)acrylamide] yielded a melting point of 116 to 118 °C. The same molecule came in with an EC50 on PPARγ-RXRα heterodimer of 4.4 nM. For the same molecule, in the data set with KKAy mice (setting [1]), the response vs control in vivo at 0.01 % came to 54%. For the same molecule, the response vs control in vivo at 0.01 % in the data set with KKAy mice (setting [2]) stood at 79%.

The molecule `COCCOc1ccc(CCCOC(=O)NS(=O)(=O)NCCc2ccccn2)c(Oc2ncc(C(F)(F)F)cc2Cl)c1` [Example 208, 3-[2-{[3-chloro-5-(trifluoromethyl)pyridin-2-yl]oxy}-4-(2-methoxyethoxy)phenyl]propyl {[(2-pyridin-2-ylethyl)amino]sulfonyl}carbamate] had a melting point of 91 to 93 °C. For the same molecule, at PPARγ-RXRα heterodimer, the EC50 was 4 nM. In the data set with KKAy mice (setting [1]), the response vs control in vivo at 0.01 % stood at 70%. In the data set on KKAy mice (setting [2]), the response vs control in vivo at 0.01 % was 71%.
